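96-well plates; 48 h exposure; 5 concentrations. Endpoints by linear interpolation between flanking doses. Not reached: highest tested concentration assigned. GI50 = concentration required for 50% inhibition of growth.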 Active and inactive are the calls of the source. No stated cut-off is given here; in the data, active = GI50 up to about 1.1 µM and inactive = higher.
Legend:
Assay in all cases: DTP human tumour cell line panel, 48 h
[1] = test system: M19-MEL
[2] = test system: NCI-H23
[3] = test system: SK-MEL-5
[4] = test system: SF-268
[5] = test system: OVCAR-8
[6] = test system: HCC 2998
[7] = test system: EKVX
[8] = test system: LOX IMVI
[9] = test system: SW-620
[10] = test system: HOP-92
[11] = test system: SF-539
[12] = test system: OVCAR-5
[13] = test system: SK-MEL-2
[14] = test system: SR
[15] = test system: HOP-62
[16] = test system: TK-10
[17] = test system: RXF 393
[18] = test system: UACC-257
[19] = test system: UO-31
[20] = test system: SNB-75
[21] = test system: ACHN
[22] = test system: SNB-78
[23] = test system: LXFL 529
[24] = test system: M14
[25] = test system: A549
[26] = test system: HT-29
[27] = test system: KM12
[28] = test system: UACC-62
[29] = test system: OVCAR-4
[30] = test system: IGROV-1
[31] = test system: HCT-116
[32] = test system: DMS-273
[33] = test system: OVCAR-3
[34] = test system: U-251
[35] = test system: HCT-15
[36] = test system: SNB-19
[37] = test system: KM-20L2
[38] = test system: COLO 205
[39] = test system: SN12C
[40] = test system: HOP-18
[41] = test system: NCI-H460
[42] = test system: RPMI-8226
[43] = test system: SK-MEL-28
[44] = test system: DMS-114
[45] = test system: NCI-H226
[46] = test system: CAKI-1
[47] = test system: NCI-H522
[48] = test system: SK-OV-3
[49] = test system: 786-0
[50] = test system: A498
[51] = test system: SF-295
[52] = test system: CCRF-CEM
[53] = test system: Malme-3M
[54] = test system: MOLT-4
[55] = test system: K562
[56] = test system: HL-60

Measured: GI50

COc1ccc(-c2nnc(-c3nsc4ccccc34)o2)cc1
inactive: [1] > 100 µM | [2] > 100 µM | [3] 61.9 µM | [4] 65.6 µM | [5] 93.5 µM | [6] 77.4 µM | [7] 38.8 µM | [8] 47.9 µM | [9] > 100 µM | [10] 43.2 µM | [11] 31.2 µM | [12] > 100 µM | [13] > 100 µM | [14] 31.9 µM | [15] 44.3 µM | [16] > 100 µM | [17] 32.5 µM | [18] > 100 µM | [19] 25.2 µM | [20] 17.5 µM | [21] 33 µM | [22] > 100 µM | [23] 54.5 µM | [24] 80.9 µM | [25] 78.5 µM | [26] 67.6 µM | [27] 49 µM | [28] > 100 µM | [29] 65.9 µM | [30] 58.6 µM | [31] 38.4 µM | [32] 71.4 µM | [33] 28.3 µM | [34] 79.6 µM | [36] > 100 µM | [37] > 100 µM | [38] > 100 µM | [39] 59.4 µM | [41] 45.4 µM | [42] 19.3 µM | [43] > 100 µM | [44] 58.1 µM
31.6 µM: [35]
active: [40] 0.571 µM

CC(C)(C)c1ccc(OC2CCO2)cc1 (configuration not stated)
20 µM: [35]
inactive: [45] 27.9 µM | [1] 23.1 µM | [2] 55.5 µM | [3] 36.3 µM | [4] 33.6 µM | [5] 38.6 µM | [46] 38.1 µM | [47] 23.6 µM | [6] 27.5 µM | [7] 35.1 µM | [9] 17.1 µM | [48] > 100 µM | [10] 35.4 µM | [11] 37.6 µM | [12] 32.7 µM | [49] 28.7 µM | [15] > 100 µM | [16] 42.4 µM | [18] 31.6 µM | [19] 58.2 µM | [20] 53.8 µM | [21] 34.5 µM | [22] 49.9 µM | [23] 54.6 µM | [24] 42.6 µM | [25] 61.2 µM | [26] 23.1 µM | [27] 25.9 µM | [50] 43.2 µM | [51] 46.9 µM | [28] 24 µM | [29] 34.2 µM | [30] > 100 µM | [31] 21 µM | [32] 34.4 µM | [33] 34.5 µM | [34] 18.7 µM | [52] 24.7 µM | [53] 67 µM | [36] 52.2 µM | [37] 19.5 µM | [38] 29.4 µM | [39] 18.7 µM | [40] > 100 µM | [54] 38.1 µM | [41] 24.3 µM | [42] 22.1 µM | [55] 17.3 µM | [43] 98.6 µM | [44] 39.5 µM

CCOc1ccccc1NC(=O)C(=O)C1C(=O)Nc2ccccc2[S+]1[O-] (configuration not stated)
> 100 µM: [35]
inactive: [4] > 100 µM | [47] > 100 µM | [6] > 100 µM | [48] > 100 µM | [49] > 100 µM | [13] > 100 µM | [17] > 100 µM | [19] > 100 µM | [22] > 100 µM | [23] > 100 µM | [24] > 100 µM | [25] > 100 µM | [31] > 100 µM | [32] > 100 µM | [33] > 100 µM | [34] > 100 µM | [56] > 100 µM | [52] > 100 µM | [53] > 100 µM | [40] > 100 µM | [54] > 100 µM | [41] > 100 µM | [42] > 100 µM | [55] > 100 µM | [43] > 100 µM | [44] > 100 µM

From ChEMBL document CHEMBL1201862, “PubChem BioAssay data set” (2004)
